Test results reported in article PMC11729419, “Thiol-Reactive or Redox-Active: Revising a Repurposing Screen Led to a New Invalidation Pipeline and Identified a True Noncovalent Inhibitor Against Papain-like Protease from SARS-CoV-2” (ACS Pharmacology & Translational Science, 2024).

What was measured:
PLpro-NAB [1] = biological target: T1, PLpro-NAB (Severe acute respiratory syndrome coronavirus 2, UniProt P0DTD1); experiment: STD-NMR ligand binding and competition; design: species or system SARS-CoV-2; settings: for STD amplification factor AMP: 0.15 mM compound, PLpro/compound 1:100
SARS-CoV-2 PLpro-NAB = SARS-CoV-2 PLpro-NAB (Severe acute respiratory syndrome coronavirus 2, UniProt P0DTD1); experiment: biochemical; settings: for HP PLpro-NAB inhibition [%] 20 μM triplicates 1 mM L-cys buffer: hit profiling
PLpro-NAB [2] = biological target: T1, PLpro-NAB; type: binding, SARS-CoV-2; settings: consistent in both DTT and L-Cys buffers
PLpro-NAB C111S = PLpro-NAB C111S (Severe acute respiratory syndrome coronavirus 2, UniProt P0DTD1, C1674S); type: binding, SARS-CoV-2

CCS(=O)(=O)N1CCC([C@@H](C)n2c(C)c(C(=O)NCc3c(OC)cc(C)[nH]c3=O)c3ccccc32)CC1 [CPI-169]
Competitive STD-NMR with GRL-0617 (PLpro-NAB [1]): displacement of CPI-169 from the GRL-0617 binding site
STD amplification factor AMP (PLpro-NAB [1]; proton H11): 0.74
STD amplification factor AMP (PLpro-NAB [1]; proton H13): 1.19
STD amplification factor AMP (PLpro-NAB [1]; proton H23): 0.43
STD amplification factor AMP (PLpro-NAB [1]; proton H35): 0.89
Inhibition in L-cysteine buffer versus DTT buffer (dose-response) (SARS-CoV-2 PLpro-NAB; 1 mM L-cysteine vs 1 mM DTT): did not show variations in inhibition potency or thermal stability
Inhibitory activity on retest in 1 mM L-cysteine (SARS-CoV-2 PLpro-NAB; 50% inhibition at 20 μM, 1 mM L-cysteine): retained their inhibitory activity
HC PLpro-NAB inhibition [%] 20 μM triplicates 1 mM DTT buffer (SARS-CoV-2 PLpro-NAB; hit confirmation, 20 μM, 1 mM DTT buffer, average (SD), 20 μM PR619 = 100%, DMSO = 0%, listed as CPI-169 (FhG)): 99.81 (2.18) %
inhibition at 20 µM (SARS-CoV-2 PLpro-NAB; hit confirmation, 20 μM, 1 mM DTT buffer, average (SD), 20 μM PR619 = 100%, DMSO = 0%, read-out: HC PLpro-NAB inhibition [%] 20 μM triplicates 1 mM DTT buffer): 96%
HP PLpro-NAB inhibition [%] 20 μM triplicates 1 mM L-cys buffer (SARS-CoV-2 PLpro-NAB; 20 μM, average (SD), 20 μM PR619 = 100%, listed as CPI-169 (EOS)): 49.41 (2.14) %
HP PLpro-NAB inhibition [%] 20 μM triplicates 1 mM L-cys buffer (SARS-CoV-2 PLpro-NAB; 20 μM, average (SD), 20 μM PR619 = 100%, listed as CPI-169 (FhG)): 70.67 (1.71) %
Tm value of PLpro-NAB (PLpro-NAB [2]): concentration-dependent increase in the Tm value
Tm / stability of PLpro-NAB C111S (PLpro-NAB C111S): increased the Tm
